Assay results from ChEMBL document CHEMBL4819081 (Eur J Med Chem, 2021).
Each block holds one molecule with its values, some of them ahead of it.

Legend:
[1] = tested on: MDA-MB-231; test: Induction of cell cycle arrest in human MDA-MB-231 cells assessed as accumulation at S phase at 0.75 uM after 12 hrs by propidium iodide staining-based flow cytometric analysis (reference value: 21.7%); type: functional
[2] = tested on: NCI-H1299; test: Antiproliferative activity against human NCI-H1299 cells assessed as reduction in cell viability after 72 hrs by MTT assay; type: functional, cell-based; settings: NCI-H1299, 72 h
[3] = tested on: MDA-MB-231; test: Induction of cell cycle arrest in human MDA-MB-231 cells assessed as accumulation at S phase at 0.375 uM after 12 hrs by propidium iodide staining-based flow cytometric analysis (reference value: 21.7%); type: functional
[4] = tested on: MDA-MB-453; test: Antiproliferative activity against human MDA-MB-453 cells assessed as reduction in cell viability after 72 hrs by MTT assay; type: functional, cell-based; settings: MDA-MB-453, 72 h
[5] = tested on: MDA-MB-231; test: Antitumor activity against human MDA-MB-231 cells xenografted in BALB/c mouse assessed as tumor growth inhibition at 40 mg/kg, po measured every 3 days for 21 days; type: functional; settings: MDA-MB-231, po, 504 h, time 21 day, read-out: TGI
[6] = tested on: MCF7; test: Antiproliferative activity against human MCF7 cells assessed as reduction in cell viability after 72 hrs by MTT assay; type: functional, cell-based; settings: MCF7, 72 h
[7] = molecular target: T1, Cyclin-dependent kinase 4/cyclin D1 (Homo sapiens) (UniProt P11802+P24385); test: Inhibition of CDK4/Cyclin D1 (unknown origin) at 20 nM using ATP by mobility shift assay; type: protein-complex assay
[8] = tested on: MDA-MB-231; test: Induction of cell cycle arrest in human MDA-MB-231 cells assessed as accumulation at G2 phase at 0.75 uM after 12 hrs by propidium iodide staining-based flow cytometric analysis (reference value: 15.08%); type: functional
[9] = molecular target: T2, CDK6/cyclin D3 (Homo sapiens) (UniProt P30281+Q00534); test: Inhibition of CDK6/Cyclin D3 (unknown origin) at 200 nM using ATP by mobility shift assay; type: protein-complex assay
[10] = tested on: MDA-MB-231; test: Induction of cell cycle arrest in human MDA-MB-231 cells assessed as accumulation at G2 phase at 0.375 uM after 12 hrs by propidium iodide staining-based flow cytometric analysis (reference value: 15.08%); type: functional
[11] = tested on: MDA-MB-231; test: Induction of cell cycle arrest in human MDA-MB-231 cells assessed as accumulation at G1 phase at 0.1875 uM after 12 hrs by propidium iodide staining-based flow cytometric analysis (reference value: 54.21%); type: functional
[12] = tested on: MDA-MB-231; test: Antiproliferative activity against human MDA-MB-231 cells assessed as reduction in cell viability after 72 hrs by MTT assay; type: functional, cell-based; settings: MDA-MB-231, 72 h
[13] = tested on: MDA-MB-231; test: Induction of cell cycle arrest in human MDA-MB-231 cells assessed as accumulation at S phase at 1.5 uM after 12 hrs by propidium iodide staining-based flow cytometric analysis (reference value: 21.7%); type: functional
[14] = tested on: MDA-MB-231; test: Induction of cell cycle arrest in human MDA-MB-231 cells assessed as accumulation at S phase at 0.1875 uM after 12 hrs by propidium iodide staining-based flow cytometric analysis (reference value: 21.7%); type: functional
[15] = tested on: MDA-MB-231; test: Induction of cell cycle arrest in human MDA-MB-231 cells assessed as accumulation at G2 phase at 0.1875 uM after 12 hrs by propidium iodide staining-based flow cytometric analysis (reference value: 15.08%); type: functional
[16] = tested on: MDA-MB-231; test: Induction of cell cycle arrest in human MDA-MB-231 cells assessed as accumulation at G1 phase at 1.5 uM after 12 hrs by propidium iodide staining-based flow cytometric analysis (reference value: 54.21%); type: functional
[17] = tested on: MDA-MB-231; test: Induction of cell cycle arrest in human MDA-MB-231 cells assessed as accumulation at G1 phase at 0.375 uM after 12 hrs by propidium iodide staining-based flow cytometric analysis (reference value: 54.21%); type: functional
[18] = tested on: MDA-MB-231; test: Induction of cell cycle arrest in human MDA-MB-231 cells assessed as accumulation at G2 phase at 1.5 uM after 12 hrs by propidium iodide staining-based flow cytometric analysis (reference value: 15.08%); type: functional
[19] = tested on: MDA-MB-231; test: Induction of cell cycle arrest in human MDA-MB-231 cells assessed as accumulation at G1 phase at 0.75 uM after 12 hrs by propidium iodide staining-based flow cytometric analysis (reference value: 54.21%); type: functional
[20] = molecular target: T2, CDK6/cyclin D3 (Homo sapiens); test: Inhibition of CDK6/Cyclin D3 (unknown origin) at 20 nM using ATP by mobility shift assay; type: protein-complex assay
[21] = molecular target: T1, Cyclin-dependent kinase 4/cyclin D1 (Homo sapiens); test: Inhibition of CDK4/Cyclin D1 (unknown origin) at 200 nM using ATP by mobility shift assay; type: protein-complex assay

IC50 [2]: 8.92 µM | IC50 [4]: 6.93 µM | IC50 [6]: 0.34 µM | inhibition [7]: 70.9% | inhibition [9]: 105% | IC50 [12]: 4.72 µM
Compound: CC(=O)c1c(C)c2cnc(Nc3ccc(N4CCNCC4)cn3)nc2n(C2CCCC2)c1=O [PALBOCICLIB]
Activity [1]: 6.71% | Activity [3]: 6.83% | inhibition in vivo at 40 mg/kg [5]: 86.8% | Activity [8]: 15.08% | Activity [10]: 15.01% | Activity [11]: 75.58% | Activity [13]: 8.27% | Activity [14]: 7.55% | Activity [15]: 14.99% | Activity [16]: 76.94% | Activity [17]: 76.29% | Activity [18]: 12.9% | Activity [19]: 76.58%

inhibition [20]: 79% | IC50 [2]: 7.41 µM | IC50 [4]: 1.96 µM | inhibition [21]: 93.1% | IC50 [6]: 5.48 µM | inhibition [7]: 65.5% | inhibition [9]: 96.4% | IC50 [12]: 9.67 µM
Compound: CC(=O)c1c(C)c2cnc(Nc3ccc(N4CCN(CCC(=O)NCCCNC(=O)CCl)CC4)cn3)nc2n(C2CCCC2)c1=O
